# Measurements taken from patent US9169257B2, “Crystal forms of adefovir dipivoxil and processes for preparing the same” (Daewoong Pharmaceutical Co., Ltd., priority 2009, dated 2015).
# Experiments:
# Type in all cases: physicochemical
# [1] = Dissolution test of formulations; details: for Dissolution rate (%): formulation per Example 1 of WO00/35460, average of 3
# Protocol: Using the novel Form B prepared in Example 11 of the present invention and the Form I prepared in Example 1 of WO99/04774 as raw materials, each formulation was manufactured by the technique disclosed in Example 1 of WO00/35460. Dissolution rates were compared in 0.01N HCl solution, pH 1.2 buffer solution (NaCl 20 g+37% HCl 68˜70 mL+distilled water 9 L), pH 4.0 buffer solution (sodium acetate 7.38 g+acetic acid 25 mL+distilled water 9 L), pH 6.0 buffer solution (KH2PO4 68 g+NaOH+distilled water 10 L) and pH 7 distilled water. Experiments were repeated 3 times for each case, and the average values are represented in Table 4.
# [2] = Stability test (HPLC content and decomposition products, 5° C. and accelerated condition over 6 months)
# Protocol: The novel Forms A and B of Examples 3 and 11 of the present invention, and 50 mg of the authentic adefovir dipivosil (purity: 99.5%) were precisely weighed into a 50 mL volumetric flask and dissolved in diluent. After making up to the mark, they were used as sample solution and standard solution, respectively. Analysis was carried out according to the following conditions, so that the contents of the novel Forms A and B, and the amounts of decomposition products of adefovir dipivoxil formed were calculated by the peak areas. The changes in the contents of novel crystal forms and the amounts of decomposition products were measured under 5° C. and accelerated condition over 6 months.
# Instrument: Waters HPLC model 2695
# Column: Allech Mixed Mode Anion exchange C8, 7 um 100 A pore size, 250 mm×4.6 mm
# Mobile phase mixing condition was operated as follows: For 19 min, mobile phase A was changed from 100% to 0%, and mobile phase B was changed from 0% to 100%. After elution with mobile phase B 100% till 36 min, the elution was changed from mobile phase A 0% to 100% till 46 min.
# Mobile phase A: buffer/acetonitrile (70:30, v/v)
# Mobile phase B: buffer/acetonitrile (50:50, v/v)
# Buffer: 9.2 g of K2HPO4 and 47.2 g of KH2PO4 were dissolved in 2 L of purified water
# Diluent: 3.4 g of KH2PO4 was dissolved in 1 L of purified water and adjusted to pH 3.0
# Detector wave length: 260 nm
# [3] = Drying temperature conditions: transformation of the crystal form under vacuum drying; details: for Crystal form: vacuum 0.1˜1.0 Torr
# Protocol: Form A prepared by Example 3 was treated with various drying temperatures and drying times under the vacuum condition of 0.1˜1.0 Torr, and the resulting trans-formation of the crystal form is represented in Table 1.
# [4] = Accelerated (25° C., 60% RH), 0 month
# [5] = Accelerated (25° C., 60% RH), 1 month
# [6] = Accelerated (25° C., 60% RH), 3 months
# [7] = Accelerated (25° C., 60% RH), 6 months
# [8] = drying time 10 h, drying temperature 40° C.
smiles,measurement,setting,value
"CC(C)(C)C(=O)OCOP(=O)(COCCN1C=NC2C(N)=NC=NC21)OCOC(=O)C(C)(C)C (single isomer, unassigned) [Form B, 9-[2-[phosphonomethoxy]ethyl]adenine bis-pivaloyloxymethyl ester]",Dissolution rate (%),"[1]; 0.01N HCl, 5 min",85.25%
same,Dissolution rate (%),"[1]; 0.01N HCl, 10 min",97.19%
same,Dissolution rate (%),"[1]; 0.01N HCl, 15 min",99.65%
same,Dissolution rate (%),"[1]; 0.01N HCl, 30 min",101.12%
same,Dissolution rate (%),"[1]; distilled water (pH 7), 5 min",83.57%
same,Dissolution rate (%),"[1]; distilled water (pH 7), 10 min",96.96%
same,Dissolution rate (%),"[1]; distilled water (pH 7), 15 min",98.73%
same,Dissolution rate (%),"[1]; distilled water (pH 7), 30 min",98.96%
same,Dissolution rate (%),"[1]; pH 1.2 buffer, 5 min",93.77%
same,Dissolution rate (%),"[1]; pH 1.2 buffer, 10 min",101.06%
same,Dissolution rate (%),"[1]; pH 1.2 buffer, 15 min",102.03%
same,Dissolution rate (%),"[1]; pH 1.2 buffer, 30 min",101.71%
same,Dissolution rate (%),"[1]; pH 4.0 buffer, 5 min",87.18%
same,Dissolution rate (%),"[1]; pH 4.0 buffer, 10 min",96.99%
same,Dissolution rate (%),"[1]; pH 4.0 buffer, 15 min",98.21%
same,Dissolution rate (%),"[1]; pH 4.0 buffer, 30 min",98.98%
same,Dissolution rate (%),"[1]; pH 6.0 buffer, 5 min",88.62%
same,Dissolution rate (%),"[1]; pH 6.0 buffer, 10 min",95.33%
same,Dissolution rate (%),"[1]; pH 6.0 buffer, 15 min",98.01%
same,Dissolution rate (%),"[1]; pH 6.0 buffer, 30 min",100.32%
same,Dissolution rate compared with the formulation utilizing the existing Form I,"[1]; formulations, summary of Table 4",superior
same,Content,"[2]; 5° C., 0 month",100.48%
same,Total amount of decomposition product,"[2]; 5° C., 0 month",0.38%
same,Content,"[2]; 5° C., 1 month",100.34%
same,Total amount of decomposition product,"[2]; 5° C., 1 month",0.31%
same,Content,"[2]; 5° C., 3 months",99.18%
same,Total amount of decomposition product,"[2]; 5° C., 3 months",0.36%
same,Content,"[2]; 5° C., 6 months",99.74%
same,Total amount of decomposition product,"[2]; 5° C., 6 months",0.43%
same,Content,[2]; [4],100.48%
same,Total amount of decomposition product,[2]; [4],0.38%
same,Content,[2]; [5],98.85%
same,Total amount of decomposition product,[2]; [5],0.42%
same,Content,[2]; [6],100.25%
same,Total amount of decomposition product,[2]; [6],0.50%
same,Content,[2]; [7],99.32%
same,Total amount of decomposition product,[2]; [7],0.66%
"CC(C)(C)C(=O)OCOP(=O)(COCCN1C=NC2C(N)=NC=NC21)OCOC(=O)C(C)(C)C (single isomer, unassigned) [Form I, 9-[2-[phosphonomethoxy]ethyl]adenine bis-pivaloyloxymethyl ester, reference compound]",Dissolution rate (%),"[1]; 0.01N HCl, 5 min",88.11%
same,Dissolution rate (%),"[1]; 0.01N HCl, 10 min",93.32%
same,Dissolution rate (%),"[1]; 0.01N HCl, 15 min",95.48%
same,Dissolution rate (%),"[1]; 0.01N HCl, 30 min",98.17%
same,Dissolution rate (%),"[1]; distilled water (pH 7), 5 min",70.92%
same,Dissolution rate (%),"[1]; distilled water (pH 7), 10 min",83.19%
same,Dissolution rate (%),"[1]; distilled water (pH 7), 15 min",88.58%
same,Dissolution rate (%),"[1]; distilled water (pH 7), 30 min",94.85%
same,Dissolution rate (%),"[1]; pH 1.2 buffer, 5 min",95.24%
same,Dissolution rate (%),"[1]; pH 1.2 buffer, 10 min",100.90%
same,Dissolution rate (%),"[1]; pH 1.2 buffer, 15 min",101.38%
same,Dissolution rate (%),"[1]; pH 1.2 buffer, 30 min",101.61%
same,Dissolution rate (%),"[1]; pH 4.0 buffer, 5 min",83.38%
same,Dissolution rate (%),"[1]; pH 4.0 buffer, 10 min",88.07%
same,Dissolution rate (%),"[1]; pH 4.0 buffer, 15 min",89.76%
same,Dissolution rate (%),"[1]; pH 4.0 buffer, 30 min",93.00%
same,Dissolution rate (%),"[1]; pH 6.0 buffer, 5 min",74.89%
same,Dissolution rate (%),"[1]; pH 6.0 buffer, 10 min",89.88%
same,Dissolution rate (%),"[1]; pH 6.0 buffer, 15 min",94.58%
same,Dissolution rate (%),"[1]; pH 6.0 buffer, 30 min",97.38%
same,Transformation of the crystal form,[3]; dried at 35 to 45° C.,not transformed to Form B
same,Crystal form,[3]; [8],Form I
same,Crystal form,"[3]; drying time 20 h, drying temperature 40° C.",Form I
"CC(C)(C)C(=O)OCOP(=O)(COCCN1C=NC2C(N)=NC=NC21)OCOC(=O)C(C)(C)C (single isomer, unassigned) [Form A, 9-[2-[phosphonomethoxy]ethyl]adenine bis-pivaloyloxymethyl ester]",Transformation of the crystal form,[3]; dried at 35 to 45° C.,transformed from Form A to Form B
same,Crystal form,"[3]; drying time 10 h, drying temperature 25° C.",Form A (2 hydrate)
same,Crystal form,"[3]; drying time 10 h, drying temperature 35° C.",Form B
same,Crystal form,[3]; [8],Form B
same,Crystal form,"[3]; drying time 10 h, drying temperature 42° C.",Form B
same,Crystal form,"[3]; drying time 10 h, drying temperature 45° C.",Form B
same,Crystal form,"[3]; drying time 10 h, drying temperature 50° C.",Mixture of Form B +
same,Crystal form,"[3]; drying time 48 h, drying temperature 25° C.",Form A (2 hydrate)
same,Transformation of the crystal form,[3]; vacuum dried at 25° C.,not transformed to other crystal forms
same,Content,"[2]; 5° C., 0 month",100.26%
same,Total amount of decomposition product,"[2]; 5° C., 0 month",0.27%
same,Content,"[2]; 5° C., 1 month",99.45%
same,Total amount of decomposition product,"[2]; 5° C., 1 month",0.25%
same,Content,"[2]; 5° C., 3 months",100.43%
same,Total amount of decomposition product,"[2]; 5° C., 3 months",0.25%
same,Content,"[2]; 5° C., 6 months",100.2%
same,Total amount of decomposition product,"[2]; 5° C., 6 months",0.32%
same,Content,[2]; [4],100.26%
same,Total amount of decomposition product,[2]; [4],0.27%
same,Content,[2]; [5],99.68%
same,Total amount of decomposition product,[2]; [5],0.38%
same,Content,[2]; [6],99.50%
same,Total amount of decomposition product,[2]; [6],0.43%
same,Content,[2]; [7],100.06%
same,Total amount of decomposition product,[2]; [7],0.60%
